# Laboratory results reported in US8431564B2 (Merck Sharp & Dohme B.V., priority 2009, dated 2013).
# Molecular target: T1, human FSH receptor (Homo sapiens, UniProt P23945)
# T1 construct: expressed in transfected cells; host or cells: CHO (Chinese Hamster Ovary) cells, stably transfected, cotransfected with CRE-luciferase reporter
# T1 sequence (P23945 18-695): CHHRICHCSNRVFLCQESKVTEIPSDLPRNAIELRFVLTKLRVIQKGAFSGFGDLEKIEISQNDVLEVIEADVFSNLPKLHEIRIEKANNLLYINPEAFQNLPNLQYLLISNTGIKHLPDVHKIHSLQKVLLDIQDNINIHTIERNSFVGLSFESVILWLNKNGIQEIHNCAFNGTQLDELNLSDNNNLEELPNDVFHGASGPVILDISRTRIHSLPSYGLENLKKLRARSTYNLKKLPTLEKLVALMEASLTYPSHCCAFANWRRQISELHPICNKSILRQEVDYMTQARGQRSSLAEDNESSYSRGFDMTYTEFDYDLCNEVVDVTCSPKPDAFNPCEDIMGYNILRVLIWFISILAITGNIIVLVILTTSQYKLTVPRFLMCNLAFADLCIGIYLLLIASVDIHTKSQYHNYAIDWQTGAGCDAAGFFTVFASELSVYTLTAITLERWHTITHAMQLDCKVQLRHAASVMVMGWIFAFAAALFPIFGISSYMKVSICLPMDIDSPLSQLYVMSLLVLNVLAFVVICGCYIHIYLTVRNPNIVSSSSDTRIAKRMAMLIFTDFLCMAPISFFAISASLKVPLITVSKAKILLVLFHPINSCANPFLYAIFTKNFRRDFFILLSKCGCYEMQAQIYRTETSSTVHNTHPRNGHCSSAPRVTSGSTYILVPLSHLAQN
# Assay: Agonistic activity at the human FSH receptor expressed in CHO cells (CRE-luciferase reporter)
# Format: cell-based
# Conditions: CHO cells stably transfected with human FSH receptor and CRE/luciferase reporter; 4 hours incubation; pEC50 is -log EC50; read-out: hFSHRago (CHO luc) pEC50 (converted)
# Method in brief: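 Stably transfected CHO cells with CRE-driven firefly luciferase reporter, incubated 4 h at 37° C. with compound (0.0316 nM–10.0 μM, duplicate, 1% DMSO final) in insulin/transferrin-supplemented medium. Luminescence after lysis; EC50 relative to compound's own maximum, efficacy as percent of recombinant human FSH maximum.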
row,Compound,EC50 [nM]
1,"COc1cc2c(cc1C(=O)N1CCOCC1)-c1c(-c3cccs3)c3c(n1CC2)C(=O)N(C(C)(C)C)CCCC3 [Compound 26c4, 9-tert-butyl-3-methoxy-2-(4-morpholinylcarbonyl)-14-(thiophen-2-yl)-5,6,10,11,12,13-hexahydroazocino[4′,3′:4,5]pyrrolo[2,1-a]isoquinolin-8(9H)-one]",9.77
2,"COCC(O)CNC(=O)c1cc2c(cc1OC)CCn1c3c(c(-c4cccs4)c1-2)CCCCN(C(C)(C)C)C3=O (stereo not shown) [Compound 26c6, 9-tert-butyl-3-methoxy-2-(2-hydroxy-3-methoxy-1-propylaminocarbonyl)-14-(thiophen-2-yl)-5,6,10,11,12,13-hexahydroazocino[4′,3′:4,5]pyrrolo[2,1-a]isoquinolin-8(9H)-one]",1.07
3,"COc1cc2c(cc1C(=O)NCCO)-c1c(-c3cccs3)c3c(n1CC2)C(=O)N(C(C)(C)C)CCCC3 [Compound 26c7, 9-tert-butyl-2-(2-hydroxyethylaminocarbonyl)-3-methoxy-14-(thiophen-2-yl)-5,6,10,11,12,13-hexahydroazocino[4′,3′:4,5]pyrrolo[2,1-a]isoquinolin-8(9H)-one]",0.427
4,"COc1cc2c(cc1F)-c1c(-c3cccs3)c3c(n1CC2)C(=O)N(C(C)(C)C)CCCC3 [Compound 27c, 9-tert-butyl-2-fluoro-3-methoxy-14-(thiophen-2-yl)-5,6,10,11,12,13-hexahydroazocino[4′,3′:4,5]pyrrolo[2,1-a]isoquinolin-8(9H)-one]",30.2
5,"COc1cc2c(cc1NS(C)(=O)=O)-c1c(-c3cccs3)c3c(n1CC2)C(=O)N(C(C)(C)C)CCCC3 [Compound 29a, 9-tert-butyl-3-methoxy-2-(methylsulfonamido)-14-(thiophen-2-yl)-5,6,10,11,12,13-hexahydroazocino[4′,3′:4,5]pyrrolo[2,1-a]isoquinolin-8(9H)-one]",1.95

# Results, then the compound that gave them:
row,EC50 [nM],Compound
1,0.871,"COc1cc2c(cc1C(=O)NCC(O)CO)-c1c(-c3cccs3)c3c(n1CC2)C(=O)N(C(C)(C)C)CCCC3 (stereo not shown) [Compound 26c5, 9-tert-butyl-3-methoxy-2-(2,3-dihydroxy-1-propylaminocarbonyl)-14-(thiophen-2-yl)-5,6,10,11,12,13-hexahydroazocino[4′,3′:4,5]pyrrolo[2,1-a]isoquinolin-8(9H)-one]"
2,5.37,"COc1cc2c(cc1C(=O)N(C)CCO)-c1c(-c3cccs3)c3c(n1CC2)C(=O)N(C(C)(C)C)CCCC3 [Compound 26c8, 9-tert-butyl-2-(N-2-hydroxyethyl,N-methylaminocarbonyl)-3-methoxy-14-(thiophen-2-yl)-5,6,10,11,12,13-hexahydroazocino[4′,3′:4,5]pyrrolo[2,1-a]isoquinolin-8(9H)-one]"
3,0.468,"C=CCCNC(=O)c1cc2c(cc1OC)CCn1c3c(c(-c4cccs4)c1-2)CCCCN(C(C)(C)C)C3=O [Compound 26c9, 9-tert-butyl-2-(4-butenylaminocarbonyl)-3-methoxy-14-(thiophen-2-yl)-5,6,10,11,12,13-hexahydroazocino[4′,3′:4,5]pyrrolo[2,1-a]isoquinolin-8(9H)-one]"
4,1.95,"COc1cc2c(cc1C(=O)NCCC(O)CO)-c1c(-c3cccs3)c3c(n1CC2)C(=O)N(C(C)(C)C)CCCC3 (stereo not shown) [Compound 26c10, 9-tert-butyl-2-(3,4-dihydroxybutylaminocarbonyl)-3-methoxy-14-(thiophen-2-yl)-5,6,10,11,12,13-hexahydroazocino[4′,3′:4,5]pyrrolo[2,1-a]isoquinolin-8(9H)-one]"
5,2.63,"COc1cc2c(cc1C(=O)CC[C@@H](O)CO)-c1c(-c3cccs3)c3c(n1CC2)C(=O)N(C(C)(C)C)CCCC3 [Compound 28b, (R)-9-tert-butyl-2-(4,5-dihydroxypentanoyl)-3-methoxy-14-(thiophen-2-yl)-5,6,10,11,12,13-hexahydroazocino[4′,3′:4,5]pyrrolo[2,1-a]isoquinolin-8(9H)-one]"
